Paper PMC12061832, “Exploring novel dilazep derivatives as hENT1 inhibitors and potentially covalent molecular tools” (Purinergic Signalling, 2024)
Read-outs that look alike come from different tables or passages of the source.

Target: T1, hENT1 (Homo sapiens, UniProt Q99808)
T1 construct: performed on erythrocyte cell membranes endogenously expressing the transporter; tissue Sanquin Bloedvoorziening, Amsterdam, The Netherlands; host or cells: erythrocyte membranes (endogenous expression)
T1 sequence (Q99808 1-456): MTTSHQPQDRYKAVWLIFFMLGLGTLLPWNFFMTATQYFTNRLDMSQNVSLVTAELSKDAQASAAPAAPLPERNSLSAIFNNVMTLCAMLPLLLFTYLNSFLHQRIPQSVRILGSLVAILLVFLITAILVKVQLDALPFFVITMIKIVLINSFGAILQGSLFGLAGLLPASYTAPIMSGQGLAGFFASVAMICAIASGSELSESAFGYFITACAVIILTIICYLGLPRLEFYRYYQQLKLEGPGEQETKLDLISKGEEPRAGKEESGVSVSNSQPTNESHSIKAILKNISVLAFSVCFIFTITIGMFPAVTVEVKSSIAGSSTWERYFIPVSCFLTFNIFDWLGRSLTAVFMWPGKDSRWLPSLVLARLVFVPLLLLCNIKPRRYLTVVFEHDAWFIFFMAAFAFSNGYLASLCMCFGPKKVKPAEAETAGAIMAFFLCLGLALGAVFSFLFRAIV
Assay: time-dependent hENT1 radioligand binding assay ([3H]NBTI displacement with or without 4 h preincubation)
Details: for [3H]NBTI displacement / % displacement at 1 μM at 4 h preincubation / % displacement at 1 μM without preincubation: 1 µM inhibitor; for [3H]NBTI displacement: with or without 4 h preincubation not told apart; for % displacement at 1 μM at 4 h preincubation / % displacement at 1 μM without preincubation: mean (individual values) of two experiments; for time-dependent shift in affinity (pKi shift) or displacement upon 4 h preincubation: 4 h preincubation vs without preincubation
Description: Radioligand displacement assays were performed as previously described. In brief, the experiments were performed on erythrocyte membranes (Sanquin Bloedvoorziening, Amsterdam, The Netherlands) using a single concentration of 1 µM or multiple concentrations (ranging from 10^–10 to 10^–6) of unlabeled inhibitors in the presence of 4 nM [^3H]NBTI at 10 °C for 1 h in assay buffer (50 mM Tris–HCl, pH 7.4, 0.1% w/v CHAPS). Non-specific binding (NSB) was assessed with 10 µM unlabeled NBTI. […] Subsequently, [^3H]NBTI was added to the preincubated and control samples (containing erythrocyte membranes, unlabeled inhibitor and radioligand) and both types of samples were incubated for another hour. Incubation was terminated by rapid vacuum filtration over Whatman™ UniFilter™ 96-well GF/C microplates using a FilterMate™ Universal Harvester (PerkinElmer, Groningen, The Netherlands). Subsequently, the plates were washed ten times with ice-cold wash buffer (50 mM Tris–HCl, pH 7.4). Thereafter, the filters were dried for 45 min at 55 °C and 25 µL of Microscint (PerkinElmer) was added per well.
All experimental data was analyzed using GraphPad Prism 10.0.2 software (GraphPad Software Inc., San Diego, CA, USA). [^3H]NBTI assays were baseline-corrected with NSB and normalized to this value (0%) and TB (100%). The radioligand displacement curves were fitted to a one-site binding model by nonlinear regression from which the pIC50 values were obtained. […] Data shown represent the mean ± SD of at least two or mean ± SEM of at least three individual experiments each performed in duplicate.
Next, the potentially covalent inhibitors that we synthesized were subjected to the aforementioned radioligand displacement assay. To study the existence of a covalent interaction with hENT1, an additional preincubation step was included.

[1] = Ki (nM) at 4 h preincubation, 4 h preincubation at 10 °C
[2] = pKi ± SEM at 4 h preincubation, 4 h preincubation at 10 °C
[3] = without preincubation, read-out: Ki (nM) without preincubation (converted)

Row | SMILES | % displacement at 1 μM at 4 h preincubation (4 h preincubation at 10 °C) | % displacement at 1 μM without preincubation (without preincubation) | further results
1 | C=CC(=O)Nc1cccc(C(=O)OCCCN2CCN(CCCOC(=O)c3cc(OC)c(OC)c(OC)c3)CC2)c1 [Compound 10a, 3-(4-(3-((3-acrylamidobenzoyl)oxy)propyl)piperazin-1-yl)propyl 3,4,5-trimethoxybenzoate] | 24 (18, 30) % | 20 (15, 26) % | [3H]NBTI displacement: around 20%
2 | COc1cc(C(=O)OCCCN2CCN(CCCOC(=O)c3ccc(N=C=S)cc3)CC2)cc(OC)c1OC [Compound 9g, 3-(4-(3-((4-isothiocyanatobenzoyl)oxy)propyl)piperazin-1-yl)propyl 3,4,5-trimethoxybenzoate] | – | – | Ki [1]: 29.9 nM; Ki [2]: 29.5 nM; Ki [3]: 48.5 nM
3 | COc1cc(C(=O)OCCCN2CCN(CCCCOC(=O)c3cccc(S(=O)(=O)F)c3)CC2)cc(OC)c1OC [Compound 9c, 3-(4-(4-((3-(fluorosulfonyl)benzoyl)oxy)butyl)piperazin-1-yl)propyl 3,4,5-trimethoxybenzoate] | 51 (48, 54) % | 61 (53, 69) % | –
4 | C=CC(=O)NCCOc1c(OC)cc(C(=O)OCCCN2CCN(CCCOC(=O)c3cc(OC)c(OC)c(OC)c3)CC2)cc1OC [Compound 14a, 3-(4-(3-((4-(2-acrylamidoethoxy)-3,5-dimethoxybenzoyl)oxy)propyl)piperazin-1-yl)propyl 3,4,5-trimethoxybenzoate] | – | – | time-dependent shift in affinity (pKi shift) or displacement upon 4 h preincubation: no observable pKi shift; Ki [1]: 50.6 nM; Ki [3]: 48.6 nM
5 | C=CC(=O)NCCCOc1c(OC)cc(C(=O)OCCCN2CCN(CCCOC(=O)c3cc(OC)c(OC)c(OC)c3)CC2)cc1OC [Compound 14b, 3-(4-(3-((4-(3-acrylamidopropoxy)-3,5-dimethoxybenzoyl)oxy)propyl)piperazin-1-yl)propyl 3,4,5-trimethoxybenzoate] | – | – | time-dependent shift in affinity (pKi shift) or displacement upon 4 h preincubation: no significant increase of the affinity; Ki [2]: 3.24 nM; Ki [3]: 5.9 nM
6 | C=CC(=O)Nc1ccc(C(=O)OCCCN2CCN(CCCOC(=O)c3cc(OC)c(OC)c(OC)c3)CC2)cc1 [Compound 10b, 3-(4-(3-((4-acrylamidobenzoyl)oxy)propyl)piperazin-1-yl)propyl 3,4,5-trimethoxybenzoate] | – | – | time-dependent shift in affinity (pKi shift) or displacement upon 4 h preincubation: absence of a pKi shift; Ki [1]: 43.6 nM; Ki [3]: 33.1 nM
7 | COc1cc(C(=O)OCCCN2CCN(CCOC(=O)c3cccc(S(=O)(=O)F)c3)CC2)cc(OC)c1OC [Compound 9a, 3-(4-(2-((3-(fluorosulfonyl)benzoyl)oxy)ethyl)piperazin-1-yl)propyl 3,4,5-trimethoxybenzoate] | 3 (-9, 13) % | -14 (-21, -7) % | –
8 | C=CC(=O)Nc1ccc(C(=O)OCCCN2CCN(CCCOC(=O)c3cc(OC)c(OC)c(OC)c3)CC2)cc1OC [Compound 10d, 3-(4-(3-((4-acrylamido-3-methoxybenzoyl)oxy)propyl)piperazin-1-yl)propyl 3,4,5-trimethoxybenzoate] | – | 27 (28, 26) % | [3H]NBTI displacement: around 20%
9 | COc1cc(C(=O)OCCCN2CCN(CCCCOC(=O)c3ccc(S(=O)(=O)F)cc3)CC2)cc(OC)c1OC [Compound 9f, 3-(4-(4-((4-(fluorosulfonyl)benzoyl)oxy)butyl)piperazin-1-yl)propyl 3,4,5-trimethoxybenzoate] | 54 (53, 56) % | 57 (52, 62) % | –
10 | COc1cc(C(=O)OCCCN2CCN(CCCOC(=O)c3ccc(S(=O)(=O)F)cc3)CC2)cc(OC)c1OC [Compound 9e, 3-(4-(3-((4-(fluorosulfonyl)benzoyl)oxy)propyl)piperazin-1-yl)propyl 3,4,5-trimethoxybenzoate] | 26 (30, 22) % | 26 (24, 27) % | –
11 | C=CS(=O)(=O)NCCCOc1c(OC)cc(C(=O)OCCCN2CCN(CCCOC(=O)c3cc(OC)c(OC)c(OC)c3)CC2)cc1OC [Compound 14d, 3-(4-(3-((3,5-dimethoxy-4-(3-(vinylsulfonamido)propoxy)benzoyl)oxy)propyl)piperazin-1-yl)propyl 3,4,5-trimethoxybenzoate] | – | – | time-dependent shift in affinity (pKi shift) or displacement upon 4 h preincubation: no significant increase of the affinity; Ki [1]: 14.2 nM; Ki [3]: 17.5 nM
12 | COc1cc(C(=O)OCCCN2CCN(CCOC(=O)c3ccc(S(=O)(=O)F)cc3)CC2)cc(OC)c1OC [Compound 9d, 3-(4-(2-((4-(fluorosulfonyl)benzoyl)oxy)ethyl)piperazin-1-yl)propyl 3,4,5-trimethoxybenzoate] | 33 (34, 32) % | 17 (12, 22) % | –
13 | COc1cc(C(=O)OCCCN2CCN(CCCOC(=O)c3cccc(S(=O)(=O)F)c3)CC2)cc(OC)c1OC [Compound 9b, 3-(4-(3-((3-(fluorosulfonyl)benzoyl)oxy)propyl)piperazin-1-yl)propyl 3,4,5-trimethoxybenzoate] | 33 (32, 34) % | 33 (32, 33) % | –
14 | C=CC(=O)NCc1ccc(C(=O)OCCCN2CCN(CCCOC(=O)c3cc(OC)c(OC)c(OC)c3)CC2)cc1 [Compound 10e, 3-(4-(3-((4-(acrylamidomethyl)benzoyl)oxy)propyl)piperazin-1-yl)propyl 3,4,5-trimethoxybenzoate] | 29 (20, 37) % | 29 (24, 35) % | –
15 | C=CC(=O)Nc1ccc(C(=O)OCCCCN2CCN(CCCOC(=O)c3cc(OC)c(OC)c(OC)c3)CC2)cc1 [Compound 10c, 3-(4-(4-((4-acrylamidobenzoyl)oxy)butyl)piperazin-1-yl)propyl 3,4,5-trimethoxybenzoate] | 41 (30, 51) % | 47 (40, 54) % | –
16 | C=CC(=O)NCCc1ccc(C(=O)OCCCN2CCN(CCCOC(=O)c3cc(OC)c(OC)c(OC)c3)CC2)cc1 [Compound 10f, 3-(4-(3-((4-(2-acrylamidoethyl)benzoyl)oxy)propyl)piperazin-1-yl)propyl 3,4,5-trimethoxybenzoate] | 7 (0, 13) % | 10 (2, 18) % | –
17 | COc1cc(C(=O)OCCCN2CCN(CCCOC(=O)c3cc(OC)c(OCCCN=C=S)c(OC)c3)CC2)cc(OC)c1OC [Compound 14c, 3-(4-(3-((4-(3-isothiocyanatopropoxy)-3,5-dimethoxybenzoyl)oxy)propyl)piperazin-1-yl)propyl 3,4,5-trimethoxybenzoate] | – | – | time-dependent shift in affinity (pKi shift) or displacement upon 4 h preincubation: no significant increase of the affinity; Ki [2]: 1.55 nM; Ki (without preincubation, read-out: pKi ± SEM without preincubation (converted)): 1.07 nM
